Test results published in PubChem BioAssay AID328 (DTP/NCI, 2004).
Values joined by “and” are separate entries in the source; they are usually repeats but may differ in a detail not shown here. Equal values may be shown once. Toxic doses and inconclusive results are not listed.

Test system: BDF1 mice, P388 leukemia ip, median survival T/C
Experiment: NCI In Vivo Anticancer Drug Screen. Data for tumor model P388 Leukemia (intraperitoneal) in B6D2F1 (BDF1) mice
Conditions: endpoint: median survival time, higher = longer survival
Procedure, shortened: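 Antitumour effect was judged in vivo: survival in drug-treated mice, normalised to that of vehicle-dosed controls, gives the reported T/C.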

[1] = dose: 100.0 mg/kg/injection, schedule: Q01DX009 (ip), vehicle: saline with Tween-80
[2] = dose: 100.0 mg/kg/injection, schedule: Q04DX003 (ip), vehicle: saline with Tween-80
[3] = dose: 200.0 mg/kg/injection, schedule: Q01DX009 (ip), vehicle: saline with Tween-80
[4] = dose: 200.0 mg/kg/injection, schedule: Q04DX003 (ip), vehicle: saline with Tween-80
[5] = dose: 400.0 mg/kg/injection, schedule: Q01DX009 (ip), vehicle: saline with Tween-80
[6] = dose: 400.0 mg/kg/injection, schedule: Q04DX003 (ip), vehicle: saline with Tween-80
[7] = dose: 100.0 mg/kg/injection, schedule: Q01DX001 (ip), vehicle: saline sonified
[8] = dose: 200.0 mg/kg/injection, schedule: Q01DX001 (ip), vehicle: saline sonified
[9] = dose: 100.0 mg/kg/injection, schedule: Q01DX009 (ip), vehicle: saline
[10] = dose: 200.0 mg/kg/injection, schedule: Q01DX009 (ip), vehicle: saline
[11] = dose: 400.0 mg/kg/injection, schedule: Q01DX009 (ip), vehicle: saline

For `O=C(O)c1ccccc1C(=O)NNC(=O)c1ccccc1C(=O)O`, which T/C [1] is on record?
Its T/C is 100 % of control.

And the T/C [2]?
Its T/C is 90 % of control.

And the T/C [3]?
The T/C was 95 % of control.

And the T/C [4]?
The T/C was 113 % of control.

And the T/C [5]?
Its T/C is 90 % of control.

What about the T/C [6] of the same compound?
The T/C was 109 % of control.

How did the T/C (dose: 1.56 mg/kg/injection, schedule: Q01DX009 (ip), vehicle: Klucel (hydroxypropylcellulose) (HPC)) turn out when `CC(C)c1ccc2c(c1)CC[C@H]1[C@](C)(CN=C(N)CCl)CCC[C@]21C` was run?
Its T/C is 110 % of control.

What about the T/C (dose: 3.13 mg/kg/injection, schedule: Q01DX009 (ip), vehicle: Klucel (hydroxypropylcellulose) (HPC)) of the same compound?
The T/C was 112 % of control.

What about the T/C (dose: 6.25 mg/kg/injection, schedule: Q01DX009 (ip), vehicle: Klucel (hydroxypropylcellulose) (HPC)) of the same compound?
Its T/C is 114 % of control.

What does the source list for `C#CCOCC1CN(c2ccccc2)C(=O)O1` (configuration not stated)?
T/C (dose: 100.0 mg/kg/injection, schedule: Q04DX003 (ip), vehicle: Klucel (hydroxypropylcellulose) (HPC)): 95 % of control; T/C (dose: 200.0 mg/kg/injection, schedule: Q04DX003 (ip), vehicle: Klucel (hydroxypropylcellulose) (HPC)): 100 % of control; T/C (dose: 400.0 mg/kg/injection, schedule: Q04DX003 (ip), vehicle: Klucel (hydroxypropylcellulose) (HPC)): 100 % of control

`COc1ccc(Cc2ccccc2)c(O)c1` was tested. Which T/C (dose: 50.0 mg/kg/injection, schedule: Q01DX009 (ip), vehicle: other) did it give?
Its T/C is 108 % of control.

And the T/C (dose: 100.0 mg/kg/injection, schedule: Q01DX009 (ip), vehicle: other)?
Its T/C is 104 % of control.

And the T/C (dose: 100.0 mg/kg/injection, schedule: Q04DX003 (ip), vehicle: other)?
Its T/C is 109 % of control.

What about the T/C (dose: 200.0 mg/kg/injection, schedule: Q01DX009 (ip), vehicle: other) of the same compound?
Its T/C is 116 % of control.

And the T/C (dose: 200.0 mg/kg/injection, schedule: Q04DX003 (ip), vehicle: other)?
The T/C was 104 % of control.

And the T/C (dose: 400.0 mg/kg/injection, schedule: Q04DX003 (ip), vehicle: other)?
Its T/C is 109 % of control.

How did the T/C (dose: 6.25 mg/kg/injection, schedule: Q01DX009 (ip), vehicle: saline) turn out when `CCCCCCOc1ccc(OCCCC[N+]2(CC)CCCCC2)cc1` was run?
Its T/C is 103 % of control.

What about the T/C (dose: 12.5 mg/kg/injection, schedule: Q01DX009 (ip), vehicle: saline) of the same compound?
The T/C was 110 % of control.

For `Cc1cccc(OS(=O)(=O)c2ccccc2[N+](=O)[O-])c1`, which T/C [7] is on record?
The T/C was 100 % of control.

And the T/C [8]?
The T/C was 110 % of control.

What about the T/C (dose: 400.0 mg/kg/injection, schedule: Q01DX001 (ip), vehicle: saline sonified) of the same compound?
The T/C was 100 % of control.

Which results are given for `COC(=O)C(=NO)C(=O)OC`?
T/C [9]: 104 % of control; T/C [10]: 96 % of control; T/C [11]: 96 % of control

What does the source list for `CCCCCCCCCCCC[n+]1cccc2ccccc21`?
T/C (dose: 0.15 mg/kg/injection, schedule: Q01DX009 (ip), vehicle: saline): 100 % of control; T/C (dose: 0.17 mg/kg/injection, schedule: Q04DX003 (ip), vehicle: saline): 118 % of control; T/C (dose: 0.34 mg/kg/injection, schedule: Q01DX009 (ip), vehicle: saline): 90 % of control and 122 % of control; T/C (dose: 0.35 mg/kg/injection, schedule: Q01DX009 (ip), vehicle: saline): 163 % of control; T/C (dose: 0.35 mg/kg/injection, schedule: Q04DX003 (ip), vehicle: saline): 122 % of control; T/C (dose: 0.7 mg/kg/injection, schedule: Q01DX009 (ip), vehicle: saline): 157 % of control; T/C (dose: 0.7 mg/kg/injection, schedule: Q04DX003 (ip), vehicle: saline): 118 % of control

Which T/C (dose: 3.75 mg/kg/injection, schedule: Q01DX009 (ip), vehicle: saline) does the source give for `CCN1c2ccccc2C(Cl)(c2ccc(N(C)C)cc2)c2ccccc21` here?
Its T/C is 118 % of control.

What about the T/C (dose: 6.25 mg/kg/injection, schedule: Q04DX003 (ip), vehicle: saline) of the same compound?
Its T/C is 100 % of control.

What about the T/C (dose: 7.5 mg/kg/injection, schedule: Q01DX009 (ip), vehicle: saline) of the same compound?
Its T/C is 118 % of control.

And the T/C (dose: 12.5 mg/kg/injection, schedule: Q04DX003 (ip), vehicle: saline)?
The T/C was 116 % of control.

What about the T/C (dose: 25.0 mg/kg/injection, schedule: Q04DX003 (ip), vehicle: saline) of the same compound?
Its T/C is 116 % of control.

For `CCOC(=O)c1c[nH]c2cc(Cl)ccc2c1=O`, which T/C (dose: 75.0 mg/kg/injection, schedule: Q04DX003 (ip), vehicle: Klucel (hydroxypropylcellulose) (HPC)) is on record?
Its T/C is 96 % of control.

Which T/C (dose: 25.0 mg/kg/injection, schedule: Q01DX009 (ip), vehicle: saline with Tween-80) does the source give for `CCN(CCO)CCNc1ccc(C)c2sc3ccccc3c(=O)c12` here?
Its T/C is 122 % of control.

What about the T/C (dose: 66.0 mg/kg/injection, schedule: Q04DX003 (ip), vehicle: saline with Tween-80) of the same compound?
The T/C was 103 % of control.

What about the T/C [1] of the same compound?
The T/C was 104 % of control.

What about the T/C [2] of the same compound?
Its T/C is 117 % of control.

What does the source list for `Cc1c(O)ccc2c1CCCC2`?
T/C (dose: 50.0 mg/kg/injection, schedule: Q01DX001 (ip), vehicle: saline sonified): 90 % of control; T/C [7]: 104 % of control; T/C [8]: 100 % of control

Which T/C [9] does the source give for `CC(=O)c1c(C)cc(C(C)(C)C)cc1C` here?
The T/C was 109 % of control.

What about the T/C [10] of the same compound?
Its T/C is 100 % of control.

And the T/C [11]?
Its T/C is 109 % of control.

Which T/C [2] does the source give for `COc1cc2c(cc1OC)C1CCN3C(=O)CCC3N1CC2` (configuration not stated) here?
Its T/C is 88 % of control.

What about the T/C [3] of the same compound?
Its T/C is 92 % of control.

What about the T/C [4] of the same compound?
Its T/C is 92 % of control.

What about the T/C [5] of the same compound?
The T/C was 104 % of control.

What about the T/C [6] of the same compound?
The T/C was 96 % of control.

What does the source list for `NNC(=S)N/N=C/c1ccc([N+](=O)[O-])s1`?
T/C (dose: 100.0 mg/kg/injection, schedule: Q01DX009 (ip), vehicle: Klucel (hydroxypropylcellulose) (HPC)): 110 % of control; T/C (dose: 200.0 mg/kg/injection, schedule: Q01DX009 (ip), vehicle: Klucel (hydroxypropylcellulose) (HPC)): 112 % of control

With `CC(=O)Nc1ccc(Cl)c(Cl)c1` as the compound, how does the T/C (dose: 100.0 mg/kg/injection, schedule: Q04DX003 (ip), vehicle: saline sonified) read?
Its T/C is 100 % of control.

What about the T/C [2] of the same compound?
Its T/C is 90 % of control.

What about the T/C (dose: 200.0 mg/kg/injection, schedule: Q04DX003 (ip), vehicle: saline sonified) of the same compound?
The T/C was 120 % of control.

What about the T/C [4] of the same compound?
Its T/C is 100 % of control.

What about the T/C (dose: 400.0 mg/kg/injection, schedule: Q04DX003 (ip), vehicle: saline sonified) of the same compound?
Its T/C is 104 % of control.

Which results are given for `CCCN(CCC)CCCOC(=O)c1ccc(N)cc1`?
T/C (dose: 25.0 mg/kg/injection, schedule: Q01DX009 (ip), vehicle: saline): 100 % of control; T/C (dose: 50.0 mg/kg/injection, schedule: Q01DX009 (ip), vehicle: saline): 96 % of control; T/C (dose: 50.0 mg/kg/injection, schedule: Q04DX003 (ip), vehicle: saline): 100 % of control; T/C [9]: 89 % of control; T/C (dose: 100.0 mg/kg/injection, schedule: Q04DX003 (ip), vehicle: saline): 95 % of control

Which results are given for `Cc1n(Cc2ccccc2)c2c([n+]1C)C(=O)c1ccccc1C2=O`?
T/C (dose: 0.5 mg/kg/injection, schedule: Q01DX010 (ip), vehicle: saline): 100 % of control; T/C (dose: 1.0 mg/kg/injection, schedule: Q01DX010 (ip), vehicle: saline): 109 % of control; T/C (dose: 2.0 mg/kg/injection, schedule: Q01DX010 (ip), vehicle: saline): 113 % of control; T/C (dose: 125.0 micrograms/kg/injection, schedule: Q01DX009 (ip), vehicle: Klucel (hydroxypropylcellulose) (HPC)): 105 % of control; T/C (dose: 250.0 micrograms/kg/injection, schedule: Q01DX009 (ip), vehicle: Klucel (hydroxypropylcellulose) (HPC)): 100 % of control; T/C (dose: 500.0 micrograms/kg/injection, schedule: Q01DX009 (ip), vehicle: Klucel (hydroxypropylcellulose) (HPC)): 110 % of control; T/C (dose: 1000.0 micrograms/kg/injection, schedule: Q01DX009 (ip), vehicle: Klucel (hydroxypropylcellulose) (HPC)): 115 % of control; T/C (dose: 2000.0 micrograms/kg/injection, schedule: Q01DX009 (ip), vehicle: Klucel (hydroxypropylcellulose) (HPC)): 120 % of control

Which results are given for `CC(C)(O)c1cccc(F)c1`?
T/C (dose: 50.0 mg/kg/injection, schedule: Q01DX009 (ip), vehicle: saline with Tween-80): 100 % of control; T/C [1]: 104 % of control; T/C [3]: 109 % of control
